{
  "source": "patent US6235891A",
  "about": "“Glucocorticoid receptor agonist and decreased PP5” (South Alabama Medical Science Foundation, priority 1999, dated 2001)",
  "key": {"[1]": {"test_system": "p21^Waf1/Cip1 mRNA", "assay": "Northern analysis of p21Waf1/Cip1 mRNA in A549 cells", "assay_type": "cell-based, human", "details": "dexamethasone 100 nM, 24 hours", "experimental": "The cells were harvested, and total RNA was extracted with TRIzol® Reagent according to the methods of the manufacturer. Total RNA (20 μg) was fractionated on 1% agarose gels containing formaldehyde and transferred to DURLON-UV nylon membranes (Stratagene). Following UV cross-linking, the filters were hybridized with a [α^32 P]probe for human PP5. […] Hybridization was performed in the presence of 50% formamide, 0.1 M Pipes, 0.8 M NaCl, 5×Denhardt's solution, 100 μg/ml denatured herring sperm DNA, 1×10^6 cpm/ml [α-^32 P]-labeled probe and 10% dextran sulfate at 42° C. for 16 hours. […] Quantification of hybridization signals was achieved by analysis of the scanned autoradiograms using the NIH Image program (ImagePC).\nReferring to FIG. 1D, a comparison of p21^Waf1/Cip1 (p21) and serum glucocorticoid inducible protein kinase (sgk) mRNA levels in p53 competent (Lanes 3, 4) and p53 deficient (Lanes 1, 2, 5, 6) cell cultures after dexamethasone treatment is shown. […] After 24 hours total mRNA was prepared and analyzed for p21 and sgk mRNA levels by Northern analysis.\nAfter 24 hours, 20 μg of total RNA was prepared and analyzed for serine/threonine protein phosphatase 5 (PP5), p21^Waf1/Cip1 (p21), and serum/glucocorticoid inducible kinase (sgk) mRNA levels. […]"}, "[2]": {"test_system": "p21^Waf1/Cip1 mRNA", "assay": "Northern analysis of p21Waf1/Cip1 mRNA in TR9 cells", "assay_type": "cell-based, human", "details": "dexamethasone 100 nM, 24 hours", "procedure": "(§1) The cells were harvested, and total RNA was extracted with TRIzol® Reagent according to the methods of the manufacturer. Total RNA (20 μg) was fractionated on 1% agarose gels containing formaldehyde and transferred to DURLON-UV nylon membranes (Stratagene). Following UV cross-linking, the filters were hybridized with a [α^32 P]probe for human PP5. The human PP5 cDNA probe was generated from the full length coding region of PP5 and [α^32 P]-dATP was labeled with DECAprime® DNA Labeling Kit according to the manufacturer's protocol. […] Quantification of hybridization signals was achieved by analysis of the scanned autoradiograms using the NIH Image program (ImagePC). […]\n(§2) The antiproliferative effect of dexamethasone correlates with the presence of wild type p53 and the expression of p21^Waf1/Cip1 mRNA. Referring to FIGS. 1A-1C, the effect of dexamethasone on cell proliferation in p53-defective T-24 human bladder carcinoma, p53-null TR9 human fibroblasts (Webster et al. 1993; Maiyar et al. 1996), and p53 wild-type A549 human lung carcinoma cells was determined by treating cells in log-phase growth with a single dose of 100 nM dexamethasone and counting the number of cells in treated (.cndot.) and untreated (.box-solid.) cultures for six consecutive days following treatment. […] After 24 hours total mRNA was prepared and analyzed for p21 and sgk mRNA levels by Northern analysis."}, "[3]": {"test_system": "p53-null TR9 human fibroblasts", "assay": "TR9 cell proliferation (cell counts)", "assay_type": "cell-based", "details": "dexamethasone single dose 100 nM, counted six days", "procedure": "(§3) The antiproliferative effect of dexamethasone correlates with the presence of wild type p53 and the expression of p21^Waf1/Cip1 mRNA. Referring to FIGS. 1A-1C, the effect of dexamethasone on cell proliferation in p53-defective T-24 human bladder carcinoma, p53-null TR9 human fibroblasts (Webster et al. 1993; Maiyar et al. 1996), and p53 wild-type A549 human lung carcinoma cells was determined by treating cells in log-phase growth with a single dose of 100 nM dexamethasone and counting the number of cells in treated (.cndot.) and untreated (.box-solid.) cultures for six consecutive days following treatment. Each point represents the mean of triplicate dishes with error bars representing SE. Under similar conditions, treatment with ISIS 15534, a potent inhibitor of PP5 gene expression, inhibited growth in A459 but not T-24 or TR9 cells (Zuo et al. 1998). Referring to FIG. 1D, a comparison of p21^Waf1/Cip1 (p21) and serum glucocorticoid inducible protein kinase (sgk) mRNA levels in p53 competent (Lanes 3, 4) and p53 deficient (Lanes 1, 2, 5, 6) cell cultures after dexamethasone treatment is shown. Cell cultures in logphase growth were treated with 100 nM dexamethasone (+) or vehicle alone as a control (-). After 24 hours total mRNA was prepared and analyzed for p21 and sgk mRNA levels by Northern analysis."}, "[4]": {"test_system": "GR luciferase reporter plasmid MMTV-luc", "assay": "MMTV-Luc glucocorticoid-responsive luciferase reporter assay in A549 cells", "assay_type": "cell-based, human", "details": "300 nM ISIS 15534 without dexamethasone, dexamethasone ≥100 nM for 2 hours", "experimental": "Transfections and luciferase assays were conducted as described by Jones et al. (1996) using a mouse mammary tumor virus-luciferase reporter plasmid (MMTV-Luc). […] Briefly, A549 cells were transfected in serum-free medium with 1 μg MMTV-Luc plasmid DNA per 60 mm dish using 15 μg/ml Lipofectin. ODNs were added into the transfection media wherever applicable. After a 4-hour incubation, the medium was replaced with fresh complete culture medium, and the cells were cultured overnight. The cells were then treated with different amounts of dexamethasone for two hours. Cell extracts were prepared with reporter lysis buffer (Promega). […] Light production was measured for 20 seconds at 562 nm using a Monolight 2010 luminometer (Analytical Luminescence Lab., San Diego, Calif.). To control for difference in transfection efficiency, contransfections were performed with 1 μg of a plasmid encoding β-galactosidase controlled by the SV40 virus promoter (pSV-β-GAL). β-GAL activity was measured in 150 μl cell extracts using the β-Galactosidase Enzyme Assay System (Promega).\nA549 cells were transiently transfected with GR luciferase reporter plasmid, MMTV-luc (Jones et al. 1996). […] The relative light units of the cell extract were calculated as an average of three independent experiments, performed in triplicate, and presented as relative luciferase activity with error bars indicating SD."}, "[5]": {"test_system": "p21^Waf1/Cip1 mRNA", "assay": "Northern analysis of p21Waf1/Cip1 mRNA in T-24 cells", "assay_type": "cell-based, human", "details": "dexamethasone 100 nM, 24 hours", "procedure": "as §1, §2"}, "[6]": {"test_system": "A549 cells", "assay": "A549 cell proliferation (viable cell counts)", "assay_type": "cell-based, human", "details": "for Decrease in proliferation compared to control: 300 nM; for Growth arrest: p53 wild-type A549 cells, dexamethasone single dose 100 nM, counted six days", "procedure": "A549 cells were treated with ISIS 15534 or its scrambled control, ISIS 15521 at a concentration of 300 nM. Each day for the next 5 days, viable cells were counted.\nA549 cells were seeded in 12-well tissue culture plates at about 50% confluence in DMEM containing 10% fetal bovine serum. The next day, cells were treated with the PP5-specific antisense oligonucleotide, ISIS 15534, or its scrambled control, ISIS 15521, at a final concentration of 300 nM as described in Example 7. On each of the following 5 days, cultures from three wells of each treatment gruop were trypsinized, collected and counted. Cell viability was determined by trypan blue staining, and the results given are the mean of three independent experiments.\nA549 cells were seeded in 12-well tissue culture plates at a density of 5.0×10^4 cell/dish. On the next day, the cells were treated with PP5 specific antisense oligonucleotides (ISIS 15534) or the scrambled mismatch control (ISIS 15521) at a final concentration of 300 nM as described above. On each of the next five days, the cell cultures were treated briefly with trypsin to detach the cells from the dish (three wells from each test group). The number of cells was then determined by counting using a hemacytometer. Cell viability was determined with trypan blue staining. The percentage of viable cells was calculated by dividing the number of cells excluding trypan blue by the total number of cells, and the results are reported as the mean +/- SD of data collected from three independent experiments.\nas §3"}, "[7]": {"test_system": "p53-defective T-24 human bladder carcinoma cells", "assay": "T-24 cell proliferation (cell counts)", "assay_type": "cell-based", "details": "p53-defective T-24 cells; dexamethasone single dose 100 nM, counted six days", "procedure": "as §3"}},
  "data": [
    {"compound": "ISIS 15534: chimeric PP5 antisense oligonucleotide, P=O wings, P=S deoxy gap; GGGCCCTATTGCTTGAGTGG, SEQ ID NO: 12 (sugars by position and backbone not given here; chimeric, phosphodiester wings, phosphorothioate deoxy gap)", "values": [
      {"measurement": "Expression of p21^Waf1/Cip1", "setting": "[1]", "result": "concomitant increase in the expression of p21^Waf1/Cip1"},
      {"measurement": "Expression of p21^Waf1/Cip1", "setting": "[2]", "result": "neither ISIS 15534 nor dexamethasone induced"},
      {"measurement": "Growth arrest", "setting": "[3]", "result": "neither ISIS 15534 nor dexamethasone induced"},
      {"measurement": "GR-reporter plasmid activation", "setting": "[4]", "result": "induces glucocorticoid-mediated transcriptional activation"},
      {"measurement": "Expression of p21^Waf1/Cip1", "setting": "[5]", "result": "neither ISIS 15534 nor dexamethasone induced"},
      {"measurement": "Decrease in proliferation compared to control", "setting": "[6]; day 2", "result": 55, "unit": "%"},
      {"measurement": "Decrease in proliferation compared to control", "setting": "[6]; day 3", "result": 75, "unit": "%"},
      {"measurement": "Decrease in proliferation compared to control", "setting": "[6]; day 4", "result": 89, "unit": "%"},
      {"measurement": "Decrease in proliferation compared to control", "setting": "[6]; day 5", "result": 55, "unit": "%"},
      {"measurement": "Growth arrest", "setting": "[6]", "result": "produced growth arrest"},
      {"measurement": "Growth arrest", "setting": "[7]", "result": "neither ISIS 15534 nor dexamethasone induced"}
    ]},
    {"compound": "C[C@@H]1C[C@H]2[C@@H]3CCC4=CC(=O)C=C[C@]4(C)[C@@]3(F)[C@@H](O)C[C@]2(C)[C@@]1(O)C(=O)CO", "note": "[dexamethasone, reference compound]", "values": [
      {"measurement": "Expression of p21^Waf1/Cip1", "setting": "[1]", "result": "concomitant increase in the expression of p21^Waf1/Cip1"},
      {"measurement": "Expression of p21^Waf1/Cip1", "setting": "[2]", "result": "neither ISIS 15534 nor dexamethasone induced"},
      {"measurement": "Growth arrest", "setting": "[3]", "result": "neither ISIS 15534 nor dexamethasone induced"},
      {"measurement": "GR-reporter plasmid activation", "setting": "[4]", "result": "more pronounced"},
      {"measurement": "Expression of p21^Waf1/Cip1", "setting": "[5]", "result": "neither ISIS 15534 nor dexamethasone induced"},
      {"measurement": "A549 cell growth when expression of p53 is suppressed with ISIS 8345", "setting": "[6]; dexamethasone ≥100 nM", "result": "partially inhibit"},
      {"measurement": "Growth arrest", "setting": "[6]", "result": "produced growth arrest"},
      {"measurement": "Growth arrest", "setting": "[7]", "result": "neither ISIS 15534 nor dexamethasone induced"}
    ]}
  ]
}
